Test results taken from patent publication US11999727B2 (Tango Therapeutics, Inc., priority 2020, dated 2024).

Tests used:
PRMT5 [1] = target: T1, PRMT5 (Homo sapiens, UniProt O14744); test: PRMT5 biochemical IC50 assay with SAM as cofactor; details: PRMT5, SAM as cofactor; read-out: SAM IC50
T1 construct: purchased Viva (custom protein)

PRMT5 [2] = target: T1, PRMT5; test: PRMT5 biochemical IC50 assay with no cofactor; details: PRMT5, no cofactor; read-out: No Cofactor/ rel IC50
Text: Table 1 indicates IC50 values (μM) against PRMT5 for exemplary compounds in the presence of SAM as cofactor, with no cofactor, and with MTA as cofactor, respectively (columns 4-6). […] Ki values can be calculated from the IC50 values as described in the Examples section. As detailed in the Examples section, for the assay performed in the presence of SAM, IC50=Ki×1.5 (Ki=IC50/1.5).

[3] = system: HAP1 MTAP-deleted cell line; test: SDMA in-cell western assay, HAP1 MTAP-deleted; format: cell-based; details: for IC50: Homo sapiens, HAP1, SDMA in-cell western, HAP1 MTAP-deleted, read-out: HAP 1 MTAP deleted IC50; for MTAP intact/deleted ratio: IC50 ratio HAP1 MTAP-intact / HAP1 MTAP-deleted, SDMA in-cell western
Outline: (§1)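 IC50 values come from SDMA signal quantified by in-cell western in two HAP1 lines, one with native MTAP levels and one lacking MTAP.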

[4] = system: HAP1 MTAP-intact cell line; test: SDMA in-cell western assay, HAP1 MTAP-intact; format: cell-based; details: Homo sapiens, HAP1, SDMA in-cell western, HAP1 MTAP-intact; read-out: MTAP HAP1 intact IC50
Outline: as §1

[5] = system: HAP1 MTAP-deleted cell line; test: Viability assay, MTAP-deleted cell line; format: cell-based; details: Homo sapiens, HAP1, viability, HAP1 MTAP-deleted cell line; read-out: HAP1 MTAP deleted viability
Text: Table 1 additionally indicates IC50 values in a viability assay for the MTAP-deleted cell line (column 10), indicating the effect of treatment with compound on cell survival.

PRMT5 [6] = target: T1, PRMT5; test: PRMT5 biochemical IC50 assay with MTA as cofactor; details: PRMT5, MTA as cofactor; read-out: MTA IC50

T1 sequence (O14744 whole entry): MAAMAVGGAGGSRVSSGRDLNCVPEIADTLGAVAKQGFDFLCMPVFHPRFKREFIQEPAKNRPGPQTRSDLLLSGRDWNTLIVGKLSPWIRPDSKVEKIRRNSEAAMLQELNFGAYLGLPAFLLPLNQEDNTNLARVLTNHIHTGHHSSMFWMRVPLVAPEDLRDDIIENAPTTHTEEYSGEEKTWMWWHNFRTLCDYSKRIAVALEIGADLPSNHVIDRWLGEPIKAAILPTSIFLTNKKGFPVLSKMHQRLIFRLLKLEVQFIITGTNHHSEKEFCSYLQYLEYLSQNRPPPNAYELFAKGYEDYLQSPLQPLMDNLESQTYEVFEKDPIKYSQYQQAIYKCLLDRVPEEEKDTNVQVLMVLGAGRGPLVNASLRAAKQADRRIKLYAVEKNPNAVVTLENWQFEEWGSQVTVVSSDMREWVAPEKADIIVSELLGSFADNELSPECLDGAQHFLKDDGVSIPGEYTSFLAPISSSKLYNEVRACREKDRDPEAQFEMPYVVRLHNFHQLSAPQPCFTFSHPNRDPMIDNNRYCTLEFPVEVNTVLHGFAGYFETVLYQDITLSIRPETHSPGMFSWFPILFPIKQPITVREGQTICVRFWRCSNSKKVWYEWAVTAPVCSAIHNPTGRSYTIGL
T1 sequence (Q9BQA1 whole entry partner): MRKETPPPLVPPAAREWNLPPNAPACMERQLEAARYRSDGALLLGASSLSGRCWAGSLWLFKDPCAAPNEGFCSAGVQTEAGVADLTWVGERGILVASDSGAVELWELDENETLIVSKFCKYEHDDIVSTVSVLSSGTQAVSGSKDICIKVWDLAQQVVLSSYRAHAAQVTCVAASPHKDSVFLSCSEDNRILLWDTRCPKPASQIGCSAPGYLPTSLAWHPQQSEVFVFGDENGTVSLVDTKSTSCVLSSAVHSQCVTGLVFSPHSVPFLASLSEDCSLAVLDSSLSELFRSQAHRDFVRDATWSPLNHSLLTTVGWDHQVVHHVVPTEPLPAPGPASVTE

| SMILES | IC50 (PRMT5 [1]) [nM] | IC50 (PRMT5 [2]) [nM] | IC50 [3] [nM] | IC50 [4] [nM] | IC50 (PRMT5 [6]) [nM] | MTAP intact/deleted ratio [3] | IC50 [5] [nM] |
| --- | --- | --- | --- | --- | --- | --- | --- |
| CCc1cc(NC(=O)C(=O)N2C[C@@H](C)CC[C@@H]2c2ccc3ccc(C4CCN(C)CC4)nc3c2)cnc1N [Compound 1365, N-(6-amino-5-ethyl-3-pyridyl)-2-oxo-2-[(2R,5S)-5-methyl-2-[2-(1-methyl-4-piperidyl)-7-quinolyl]-1-piperidyl]acetamide] | 50 to 500 | < 50 | < 100 | < 100 | < 50 | A (an IC50 ratio greater than or equal to 10 fold) | < 1000 |
| CCc1cc(NC(=O)C(=O)N2C[C@@H](C)CC[C@@H]2c2ccc3sc([C@@H]4[C@@H]5CN(C)C[C@@H]54)nc3c2)cnc1N [Compound 1366, N-(6-amino-5-ethylpyridin-3-yl)-2-((2R,5S)-5-methyl-2-(2-((1R,5S,6s)-3-methyl-3-azabicyclo[3.1.0]hexan-6-yl)benzo[d]thiazol-5-yl)piperidin-1-yl)-2-oxoacetamide] | < 50 | < 50 | < 100 | < 100 | < 50 | A (an IC50 ratio greater than or equal to 10 fold) | < 1000 |
| CCc1cc(NC(=O)C(=O)N2C[C@@H](C)CC[C@@H]2c2cccc(N3CCN(C)CC3)c2)cnc1N [Compound 1367, N-(6-amino-5-ethylpyridin-3-yl)-2-((2R,5S)-5-methyl-2-(3-(4-methylpiperazin-1-yl)phenyl)piperidin-1-yl)-2-oxoacetamide] | < 50 | < 50 | < 100 | 100 to 1000 | < 50 | A (an IC50 ratio greater than or equal to 10 fold) | < 1000 |
| CCc1cc(NC(=O)C(=O)N2C[C@@H](C)CC[C@@H]2c2ccc3cc(C)c(C4CCN(C)CC4)nc3c2)cnc1N [Compound 1368, N-(6-amino-5-ethyl-3-pyridyl)-2-oxo-2-[(2R,5S)-5-methyl-2-[3-methyl-2-(1-methyl-4-piperidyl)-7-quinolyl]-1-piperidyl]acetamide] | 50 to 500 | < 50 | < 100 | < 100 | < 50 | A (an IC50 ratio greater than or equal to 10 fold) | < 1000 |
| CCc1cc(NC(=O)C(=O)N2C[C@@H](C)CC[C@@H]2c2ccc3sc(CN(CC)C(C)C)nc3c2)cnc1N [Compound 1380, N-(6-amino-5-ethylpyridin-3-yl)-2-((2R,5S)-2-(2-((ethyl(isopropyl)amino)methyl)benzo[d]thiazol-5-yl)-5-methylpiperidin-1-yl)-2-oxoacetamide] | 50 to 500 | < 50 | < 100 | 100 to 1000 | < 50 | A (an IC50 ratio greater than or equal to 10 fold) | < 1000 |
| CCc1cc(NC(=O)C(=O)N2C[C@@H](C)CC[C@@H]2c2ccc3sc([C@H]4CN(C)C(=O)CN4C)nc3c2)cnc1N [Compound 1385] | 50 to 500 | < 50 | < 100 | < 100 | < 50 | A (an IC50 ratio greater than or equal to 10 fold) | < 1000 |
| CCc1cc(NC(=O)C(=O)N2C[C@@H](C)CC[C@@H]2c2ccc(N3CCN(C)CC3)c(C)c2)cnc1N [Compound 1390, N-(6-Amino-5-ethyl-3-pyridyl)-2-[(2R,5S)-5-methyl-2-[3-methyl-4-(4-methylpiperazin-1-yl)phenyl]-1-piperidyl]-2-oxo-acetamide] | 50 to 500 | 50 to 500 | < 100 | 100 to 1000 | < 50 | A (an IC50 ratio greater than or equal to 10 fold) | < 1000 |
| CCc1cc(NC(=O)C(=O)N2[C@@H](c3ccc4sc(C5CCN(C)CC5)nc4c3)CCC[C@@H]2C)cnc1N [Compound 1395] | 50 to 500 | < 50 | < 100 | < 100 | < 50 | A (an IC50 ratio greater than or equal to 10 fold) | < 1000 |

More lines, main results first:

| IC50 (PRMT5 [1]) [nM] | IC50 (PRMT5 [2]) [nM] | IC50 [3] [nM] | IC50 [4] [nM] | IC50 (PRMT5 [6]) [nM] | SMILES | MTAP intact/deleted ratio [3] | IC50 [5] [nM] |
| --- | --- | --- | --- | --- | --- | --- | --- |
| < 50 | < 50 | < 100 | < 100 | < 50 | CCc1cc(NC(=O)C(=O)N2C[C@@H](C)CC[C@@H]2c2ccc3sc(C45CC(C4)N(C)C5)nc3c2)cnc1N [Compound 1372] | A (an IC50 ratio greater than or equal to 10 fold) | < 1000 |
| 50 to 500 | < 50 | < 100 | 100 to 1000 | < 50 | Cc1cc(NC(=O)C(=O)N2C[C@@H](C)CC[C@@H]2c2ccc3sc(C4CCN(CC(F)F)CC4)nc3c2)cnc1N [Compound 1377, N-(6-amino-5-methylpyridin-3-yl)-2-((2R,5S)-2-(2-(1-(2,2-difluoroethyl)piperidin-4-yl)benzo[d]thiazol-5-yl)-5-methylpiperidin-1-yl)-2-oxoacetamide] | A (an IC50 ratio greater than or equal to 10 fold) | < 1000 |
| 50 to 500 | 50 to 500 | < 100 | < 100 | < 50 | C[C@H]1CC[C@H](c2ccc3sc(CCN4CCCC4)nc3c2)N(C(=O)C(=O)Nc2cnc(N)c(C3COC3)c2)C1 [Compound 1379, N-(6-amino-5-(oxetan-3-yl)pyridin-3-yl)-2-((2R,5S)-5-methyl-2-(2-(2-(pyrrolidin-1-yl)ethyl)benzo[d]thiazol-5-yl)piperidin-1-yl)-2-oxoacetamide] | A (an IC50 ratio greater than or equal to 10 fold) | < 1000 |
| < 50 | < 50 | < 100 | < 100 | < 50 | CCc1cc(NC(=O)C(=O)N2C[C@@H](C)CC[C@@H]2c2ccc3sc(C4CCN(C)CC4C)nc3c2)cnc1N (stereo partly drawn) [Compound 1382, N-(6-amino-5-ethyl-3-pyridyl)-2-[(5S)-2-[2-(1,3-dimethyl-4-piperidyl)-1,3-benzothiazol-5-yl]-5-methyl-1-piperidyl]-2-oxo-acetamide] | A (an IC50 ratio greater than or equal to 10 fold) | < 1000 |
| < 50 | < 50 | < 100 | < 100 | < 50 | CCc1cc(NC(=O)C(=O)N2C[C@@H](C)CC[C@@H]2c2ccc3sc(C4CCN(C)C4)nc3c2)cnc1N (some centres unmarked) [Compound 1383] | A (an IC50 ratio greater than or equal to 10 fold) | < 1000 |
| 50 to 500 | < 50 | < 100 | < 100 | < 50 | Cc1cc(NC(=O)C(=O)N2C[C@@H](C)CC[C@@H]2c2ccc3sc(CCN4CCOCC4)nc3c2)cnc1N [Compound 1387, N-(6-amino-5-methylpyridin-3-yl)-2-((2R,5S)-5-methyl-2-(2-(2-morpholinoethyl)benzo[d]thiazol-5-yl)piperidin-1-yl)-2-oxoacetamide] | B (an IC50 ratio greater than or equal to 3 fold but lower than 10 fold) | < 1000 |
| < 50 | < 50 | < 100 | < 100 | < 50 | CCc1cc(NC(=O)C(=O)N2C[C@@H](C)CC[C@@H]2c2ccc3sc([C@H]4CCCN(C)C4)nc3c2)cnc1N [Compound 1388, N-(6-amino-5-ethylpyridin-3-yl)-2-((2R,5S)-5-methyl-2-(2-(1-methylpiperidin-3-yl)benzo[d]thiazol-5-yl)piperidin-1-yl)-2-oxoacetamide] | A (an IC50 ratio greater than or equal to 10 fold) | < 1000 |
| 50 to 500 | < 50 | < 100 | 100 to 1000 | < 50 | CCc1cc(NC(=O)C(=O)N2C[C@@H](C)CC[C@@H]2c2ccc3sc(-c4ccnn4C)nc3c2)cnc1N [Compound 1389, N-(6-amino-5-ethylpyridin-3-yl)-2-((2R,5S)-5-methyl-2-(2-(1-methyl-1H-pyrazol-5-yl)benzo[d]thiazol-5-yl)piperidin-1-yl)-2-oxoacetamide] | A (an IC50 ratio greater than or equal to 10 fold) | < 1000 |
| < 50 | < 50 | < 100 | 100 to 1000 | < 50 | CCc1cc(NC(=O)C(=O)N2C[C@@H](C)CC[C@@H]2c2cccc(OCCN3CCCC3)c2)cnc1N [Compound 1391, N-(6-amino-5-ethylpyridin-3-yl)-2-((2R,5)-5-methyl-2-(3-(2-(pyrrolidin-1-yl)ethoxy)phenyl)piperidin-1-yl)-2-oxoacetamide] | A (an IC50 ratio greater than or equal to 10 fold) | < 1000 |
